# Where two headings read alike, the source gives them in different places.
# Legend:
# [1] = test system: cystometrogram (time to micturition); experiment: Effects on the cystometrogram (Cat); format: in vivo, Mongrel adult cats; details: cats; for ED (2 min delay of micturition): Felis catus, read-out: ED2 (dose which delayed time to micturition by 2 min.)
# Protocol: (§1) statistical analysis: Each data of Experiment 1-6 represents the mean±S.E. statistical analysis of the data was performed using student's t-test.
# Mongrel adult cats weighing about 3 kg (in case of intraduodenal administration, fasted 24 hours) were anesthetized with urethane (500 mg/kg, i.p.) and alpha-chloralose (50 mg/kg, i.p.) and fixed on their back.
# After midline incision of the abdomen, the ureters were ligated and polyethylene tubes were inserted into the kidney side and urinary bladder side, urine was led out of the body from the kidney side, and warm saline was infused using a continuous infusion pump from the urinary bladder side.
# Then, a catheter was inserted into the bladder dome and connected to a pressure transducer Intravesical pressure was recorded on a recorder.
# The infusion rate of saline was changed (0.7-6.6 ml/min) so as to induce the time to micturition from saline infusion at about five minutes.
# Each of delayed time of micturition was evaluated. In case of intravenous administration, the drug was administered through a cannula inserted into the right femoral vein at 30 seconds before saline infusion.
# In case of intraduodenal administration, the drug was administrated through a tube inserted into the duodenum by way of mouth at the time of saline infusion, and the time to micturition was measured at 15 min. intervals until 90 min.
# [2] = test system: micturition reflex (rhythmic bladder contractions); experiment: Inhibition of micturition reflex (rhythmic bladder contractions) in anesthetized rats; format: in vivo, male wister rats; details: for Disappearance time (of bladder contractions): i.v., 3 rats, mean ± S.E.
# Protocol: as §1
# According to the method described by Morikawa et al. (Folia phamacol. japon.: 88,355 (1986), male wister rats weighing about 300 g (in case of intraduodenal administration, fasted 18-20 hours) were anesthetized with urethane (500 mg/kg, i.p.) and alpha-chloralose (50 mg/kg, i.p.), and fixed on their back.
# Then, through a midline incision of the abdomen, the urinary bladder was exposed, provided with a small incision, and a balloon (capacity about 1 ml) was inserted into the bladder dome.
# (§2) The balloon was connected to a pressure transducer and variations of inside pressure were recorded on a recorder.
# Micturition reflex was elicited by elevating balloon pressure 10-20 cm H2 O.
# In case of intravenous administration, the drug was administrated through a cannula inserted into the left jugular vein and, in case of intraduodenum administration, the drug was administrated through a cannula into the duodenum from outside the stomach.
# In case of intravenous administration, the drug was evaluated by the dissappearance time of bladder contractions caused by micturition reflex.
# In case of intraduodenal administration, the sum total of amplitude of bladder contractions caused by the micturition reflex was calculated during each five minutes at 5 min. before and 15, 30, 45, and 60 min. after the administration.
# Then, the maximum inhibition rate was determined from one of the above judgment times compared with that of before the administration, and the dose which inhibited 50 percent of the sum total of amplitude of bladder contractions during five minutes (ED 50 value), was calculated from the graph.
# [3] = test system: micturition reflex (rhythmic bladder contractions); experiment: Inhibition of micturition reflex (rhythmic bladder contractions) in unanesthetized, gallamine-immobilized rats; format: in vivo, Male Wister rats; details: for Disappearance time (of bladder contractions): i.v., 4 rats, mean ± S.E., saline 9.0 ± 1.8; for Inhibition Rate: i.d., 15 min after administration, 0.5% CMC 11.9 ± 7.9
# Protocol: as §1
# Male Wister rats weighing about 300 g (in case of intraduodenal administration, fasted more than 15 hours) were anesthetized with ether and immobilized with gallamine (5 mg/kg, i.v.) and fixed on their back. As soon as that procedure was finished anesthesia was discontinuted.
# In the experiment, infusion of gallamine, 13 mg/kg/hr, i.v. (in case of intraduodenum administration, 10 mg/kg/hr, i.v.) was continuted, and artificial respiration was performed (90 times/min, 3 ml air/time).
# Then, through a midline incision of the abdomen, the urinary bladder was exposed; a small incision provided therein, and a balloon (capacity about 1 ml) was inserted into the bladder dome.
# as §2
# Micturition reflex was elicited by raising the balloon pressure 10-20 cm H2 O.
# In case of intravenous administration, the drug was administrated through a cannula inserted into the left jugular vein, and in case of intraduodenal administration the drug was administrated through a cannula inserted into the duodenum from outside the stomach.
# In case of intravenous administration, the effect of the drug was represented by the disappearance time of bladder contractions caused by micturition reflex.
# In case of intraduodenal administration, the sum total of amplitude of bladder contractions caused by micturition reflex was calculated during each five minutes at 5 min before and 15, 30, 45, 60, 75, 90, 105 and 120 min after the administration.
# Then, inhibition rate was calculated by the sum total of amplitude of bladder contractions at each point compared with that before the administration.
# [4] = test system: cystometrogram (time to micturition); experiment: Effects on the cystometrogram (in anesthetized rat); format: in vivo, Male Wister rats; details: i.v., 6 rats, mean ± S.E., saline -6.0 ± 49.8
# Protocol: as §1
# Male Wister rats weighing about 300 g were anesthetized with urethane (500 mg/kg, i.p.) and α-chloralose (50 mg/kg, i.p.) and fixed on their back.
# Then, through a midline incision of the abdomen, the urinary bladder was exposed, provided with a small incision, a polyethylene tube was inserted into the bladder dome, and ureters were cut.
# Then, through the polyethylene tube, saline was infused using a continuous infusion pump. On the other hand, the polyethylene tube was connected to a pressure transducer. Intravesical pressure was recorded on a recorder.
# The drug was administrated through a cannula inserted into the left jugular vein at 30 sec before saline infusion. Effect of the drug was represented by delayed time to micturition.
# [5] = test system: cystometrogram (time to micturition); experiment: Effects on the cystometrogram (Dog); format: in vivo, Mongrel adult dogs; details: i.v., dogs, mean ± S.E., saline 6.0 ± 13.8
# Protocol: as §1
# Mongrel adult dogs weighing about 10 kg were anesthetized with thiopental (20 mg/kg, i.v.) and immobilized with gallamine (2 mg/kg, i.v.), and fixed on their back.
# In the experiment, infusion of pentobarbital (3 mg/kg/hr, i.v.) and gallamine (3 mg/kg i.v.) were continuted, and artifical respiration was performed (20 times/min, 20 ml air/kg).
# After midline incision of the abdomen, the ureters were ligated and polyethylene tubes were inserted into the kidney side and the urinary bladder side. Urine was led out of the body from the kidney side, and warm saline was infused using a continuous infusion pump from the urinary bladder side.
# Then, a catheter was inserted into the bladder dome and connected to a pressure transducer. Intravesical pressure was recorded on a recorder.
# The infusion rate of saline was changed (6-35 ml/min) so as to induce the time to micturition from the saline infusion (time to micturition) at about five minutes.
# The drug was administered (through a cannula inserted into the right femoral vein) at the second minute before the last time to micturition, and the delayed time of micturition was evaluated.
structure (smiles),measurement,setting,value
CCc1ccc(C(=O)C(C)CN2CCCC2)cc1 (centres unmarked) [Compound 1],Delayed time to micturition,"[1]; 1 mg/kg, i.v., mean ± S.E., saline 6.6 ± 10.2",-19.2 ± 6.6 s
same,Delayed time to micturition,"[1]; 4 mg/kg, i.v., mean ± S.E., saline 6.6 ± 10.2",70.8 ± 27.0 s
same,Delayed time to micturition,"[1]; 8 mg/kg, i.v., mean ± S.E., saline 6.6 ± 10.2",170.4 ± 48.0 s
same,Delayed time to micturition,"[1]; 12.5 mg/kg, i.d., after 30 min., water 22.2 ± 16.2",49.8 ± 8.4 s
same,Delayed time to micturition,"[1]; 25.0 mg/kg, i.d., after 30 min., ** p < 0.01 vs control, water 22.2 ± 16.2",105.0 ± 10.8 s
same,Delayed time to micturition,"[1]; 50.0 mg/kg, i.d., after 30 min., water 22.2 ± 16.2",128.4 ± 37.8 s
same,ED (2 min delay of micturition),"[1]; intraduodenal, 0.5 h, i.d., after 30 min.",39 mg/kg
same,ED (2 min delay of micturition),"[1]; iv, 2 min, i.v.",5.6 mg/kg
same,Disappearance time (of bladder contractions),[2]; 1 mg/kg,1.1 ± 1.1 min
same,Disappearance time (of bladder contractions),[2]; 2 mg/kg,2.3 ± 0.5 min
same,Disappearance time (of bladder contractions),[2]; 4 mg/kg,7.1 ± 2.8 min
same,ED (3 min disappearance of contractions),"[2]; Rattus norvegicus, iv, read-out: ED3 (dose at which rhythmic bladder contractions disappeared in three (3) minutes)",2.2 mg/kg
same,ED50,"[2]; Rattus norvegicus, intraduodenal administration, read-out: ED50 (dose which inhibited 50 percent of the sum total of amplitude of bladder contractions during five minutes)",14.3 mg/kg
same,Disappearance time (of bladder contractions),[3]; 4 mg/kg,52.8 ± 23.4 min
same,Disappearance time (of bladder contractions),"[3]; 8 mg/kg, * p < 0.05 vs control",249.0 ± 45.0 min
same,Inhibition Rate,"[3]; 12.5 mg/kg, * p < 0.05",36.1 ± 4.4%
same,Inhibition Rate,"[3]; 25 mg/kg, ** p < 0.01",53.8 ± 6.9%
same,Inhibition Rate,"[3]; 50 mg/kg, ** p < 0.01",87.9 ± 5.1%
same,Delayed time of micturition,[4]; 1 mg/kg,52.8 ± 50.4 s
same,Delayed time of micturition,[4]; 4 mg/kg,102.0 ± 32.4 s
same,Delayed time of micturition,"[4]; 8 mg/kg, ** P < 0.01 vs control",200.4 ± 60.6 s
same,Delayed time of micturition,[5]; 1 mg/kg,13.2 ± 21.0 s
same,Delayed time of micturition,"[5]; 3 mg/kg, * p < 0.05 vs last time to micturition",50.4 ± 15.0 s
